In patent publication EP4635958A1, “PYRIMIDINE-CONTAINING POLYCYCLIC DERIVATIVE INHIBITOR, AND PREPARATION METHOD THEREFOR AND USE THEREOF” (Shanghai Hansoh Biomedical Co., Ltd., priority 2022, dated 2024):
Where a name gives a salt, the structure may show the parent alone. Read-outs that look alike come from different tables or passages of the source.

Key:
[1] = tested on: human pancreatic cancer cell line (HPAC); test: Antitumor efficacy in mouse transplanted tumor model of human pancreatic cancer cell line (HPAC); format: in vivo, mice (BALB/c nude); conditions: HPAC xenograft, 100mpk, PO*BID; for Tumor volume (mm^3, Mean ± SD) Day 0: Day 0 (baseline)
From the text: 8-10 week old female conventional immunodeficient mice (BALB/c nude) with a body weight of 18 g-22 g were used as experimental animals, and a transplanted tumor model of human pancreatic cancer cell line (HPAC) was used to conduct in vivo efficacy experiments to test the anti-tumor results of the example compounds after gavage administration.
The example compounds of the present invention, made in house.
A certain amount of the example compound was weighed, and an appropriate amount of 10% vehicle (Solutol HS15) was added. The mixture was stirred on a magnetic stirrer for 0.5 h to formulate a homogeneous suspension at the desired concentration.
Human pancreatic cancer cell line (HPAC) was derived from COBIOER BIOSCIENCES CO., LTD, cultured on DMEM/F12 medium (Gibco, 11330-032) supplemented with 10% fetal calf serum (Gibco, 10091-148), 1×Insulin (51500-056, Gibco) and 10 ng/ml of EGF (PHG0311, Gibco) and observed under a microscope (Thermo Fisher, 311). The cells were routinely passaged when the cells reached 80%-90% confluence in the culture flask. The passaged cells were cultured in a 37°C, 5% CO2 incubator (Thermo Fisher, 311).
Under aseptic conditions, human pancreatic cancer cells (HPAC) in the logarithmic growth phase were harvested using 0.25% trypsin-EDTA (Gibco, 25200-056), washed and resuspended with phosphate buffer. The cell suspension was mixed with Matrigel (Corning, 356234) at a 1 : 1 ratio (v/v) and implanted subcutaneously into the right anterior dorsal region of immunodeficient mice (BALB/c nude). Each mouse was inoculated with 3*10^6 cells in a volume of 100 microliters (µL). After inoculation, when the tumor volume reached 100-200 mm^3, the mice would be evenly randomized into 5 groups based on the tumor size, with 5 mice per group, for in vivo efficacy experiments. The negative control group was the vehicle group.
Mode of administration: The example compounds were administered orally.
Twice a week, the long and short diameters of the tumor were measured using a vernier caliper, and the tumor volume (mm^3) was calculated using the formula: V = 0.5*D*d*d, where D and d are the long and short diameters of the tumor, respectively. The anti-tumor efficacy was determined by dividing the average increase in tumor volume of compound-treated animals by the average increase in tumor volume of untreated animals. The calculation formula for tumor inhibition rate was: When there is no tumor regression, TGI(%) = 100-[(Vt-V0) administration group/(Vt-V0) vehicle control group]*100%. When tumor regression occurs, TGI(%) = [1-(Vt-V0) administration group/V0 vehicle control group]*100%. All animals were euthanized after the experiment.

GP2D = test: Inhibition of proliferation of KRAS G12D mutant tumor cell line GP2D (CellTiter-Glo); conditions: read-out: GP2D IC50
[2] = Pharmacokinetic determination in mice (IV and PO, plasma, LCMS/MS); format: in vivo, Balb/c mice; conditions: for F: PO 30 mg/kg vs IV 1 mg/kg; for AUC(0-inf) / C0 / clearance / half-life / Cmax / Tmax: mouse, in vivo, plasma; for C0: read-out: C0; for clearance: read-out: CL; for half-life: read-out: T1/2 (converted); for Cmax: read-out: Cmax; for Tmax: read-out: Tmax
Outline: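 Male Balb/c mice, fasted overnight (n=3 per route): PO 30 mg/kg in 10% Captisol/50 mM citrate pH 5.0, or IV 1 mg/kg in 5% DMSO/10% Solutol HS15/85% PBS. Orbital blood sampled predose to 24 h; EDTA plasma analysed by LC-MS/MS.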

[3] = Plasma stability test, dog plasma; format: in vitro ADME; conditions: Dog plasma, 37°C; for half-life: read-out: t1/2 (converted);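 for all read-outs here: parent compound left in dog plasma quantified by LC-MS with positive electrospray ionization, selected reaction monitoring and an internal standard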
Description: Liquid chromatography-mass spectrometer, centrifuge, vortexer, pipette, continuous dispenser, 96-well plate, 50% methanol aqueous solution, acetonitrile solution containing internal standard, blank matrix (plasma of rat, dog, or human), Propantheline (propantheline bromide), Mevinolin (lovastatin), and test compound.
After whole blood was collected from animals or humans, it was placed in a test tube containing an anticoagulant and centrifuged at 3500 rpm for 10 min to collect the upper pale yellow plasma.
The compound was weighed and the stock solution was formulated with DMSO and the working solution was formulated with 100 mM phosphate buffer.
• Instrument: API4000 liquid chromatography-mass spectrometer, AB Company, USA; • the ion source was electrospray ionization source (ESI); • drying gas (N2) temperature was 500°C; • electrospray voltage was 5500V; • the detection method was positive ion detection; • the scanning method was selected reaction monitoring (MRM); • the scanning time was 0.1s.

[4] = Balb/c mice, intravenously (IV), 1 mg/kg, read-out: AUCo-∞
[5] = Balb/c mice, intravenously (IV), 1 mg/kg
[6] = PO, 30 mg/kg, male Balb/c mice, overnight fasting, read-out: AUC0-∞
[7] = PO, 30 mg/kg, male Balb/c mice, overnight fasting

| Molecule | F ([2]; male Balb/c mice) [%] | AUC(0-inf) [2, 4] [µg·h/mL] | C0 [2, 5] [µg/mL] | clearance [2, 5] [L/h/kg] | half-life [2, 5] [h] | AUC(0-inf) [2, 6] [µg·h/mL] | Cmax [2, 7] [µg/mL] | half-life [2, 7] [h] | Tmax [2, 7] [h] | Remaining rate (%) 0 min [3] [%] | Remaining rate (%) 15 min [3] [%] | Remaining rate (%) 30 min [3] [%] | Remaining rate (%) 60 min [3] [%] | Remaining rate (%) 120 min [3] [%] | half-life [3] [h] | IC50 (GP2D; Homo sapiens, GP2d, 72 h) [nM] | further results |
| --- | --- | --- | --- | --- | --- | --- | --- | --- | --- | --- | --- | --- | --- | --- | --- | --- | --- |
| 4-((5S,5aS,6R,9S)-12-((1-((((R)-4-(difluoromethylene)-2-methylpiperidin-1-yl)methyl)cyclopropyl)methoxy)-1-fluoro-5-(methyl-d3)-5a,6,7,8,9,10-hexahydro-5H-4-oxa-3,10a,11,13,14-pentaaza-6,9-methylnaphtho[1,8-ab]hept-2-yl)-5-ethynyl-6-fluoronaphthalen-2-ol [Example 162] | – | – | – | – | – | – | – | – | – | – | – | – | – | – | – | – | Tumor volume (mm^3, Mean ± SD) Day 0 ([1]; Table 11): 210 mm^3; TGI(%) Day 21 ([1]; Table 11): 126.15%; Tumor volume (mm^3, Mean ± SD) Day 21 ([1]; Table 11): 155 mm^3; ΔT/ΔC(%) Day 21 ([1]; Table 11): 13.54%; IC50 (GP2D; proliferation, about 72 h, CellTiter-Glo): 0.2 nM |
| C#Cc1c(F)ccc2cc(O)cc(-c3nc4c5c(nc(OCC6(CN7CCC(=C(F)F)CC7)CC6)nc5c3F)N3C[C@H]5CC[C@H](N5)[C@H]3CO4)c12 [Example 1-1, 4-((5aS,6S,9R)-12-((1-((4-(difluoromethylene)piperidin-1-yl)methyl)cyclopropyl)methoxy)-1-fluoro-5a,6,7,8,9,10-hexahydro-5H-4-oxa-3,10a,11,13,14-pentaaza-6,9-methylenenaphtho[1,8-ab]heptalene-2-yl)-5-ethynyl-6-fluoronaphthalen-2-ol] | 12.1 | 0.583 | 0.886 | 1.72 | 8.6 | 2.11 | 0.227 | 9.1 | 0.5 | 100.00 | 100.25 | 105.57 | 104.40 | 93.99 | 48.9 | 1.2 | – |
| C#Cc1c(F)ccc2cc(O)cc(-c3nc4c5c(nc(OCC6(CN7CCC(=C(F)F)CC7)CC6)nc5c3F)N3C[C@H]5CC[C@H](N5)[C@H]3[C@H](C)O4)c12 [Example 19-1, 4-((5S,5aS,6S,9R)-12-((1-((4-(difluoromethylene)piperidin-1-yl)methyl)cyclopropyl)methoxy)-1-fluoro-5-methyl-5a,6,7,8,9,10-hexahydro-5H-4-oxa-3,10a,11,13,14-pentaaza-6,9-methylnaphtho[1,8-ab]hept-2-yl)-5-ethynyl-6-fluoronaphthalene-2-ol] | 11.2 | 0.476 | 0.904 | 2.1 | 11.2 | 1.61 | 0.316 | 7.2 | 1 | 100.00 | 95.89 | 101.96 | 101.84 | 94.59 | 75.5 | 0.16 | – |
| C#Cc1c(F)ccc2cc(O)cc(-c3nc4c5c(nc(OCC6(CN7CCC(=NOC)CC7)CC6)nc5c3F)N3C[C@H]5CC[C@H](N5)[C@H]3[C@H](C)O4)c12 [Example 35-1, 1-((1-((((5S,5aS,6S,9R)-2-(8-ethynyl-7-fluoro-3-hydroxynaphthalen-1-yl)-1-fluoro-5-methyl-5a,6,7,8,9,10-hexahydro-5H-4-oxa-3,10a,11,13,14-pentaaza-6,9-methylenenaphtho[1,8-ab]heptalen-12-yl)oxo)methyl)cyclopropyl)methyl)piperidin-4-one O-methyloxime formate] | – | 0.144 | 0.693 | 6.97 | 3.2 | – | – | – | – | – | – | – | – | – | – | 0.21 | Tumor volume (mm^3, Mean ± SD) Day 0 ([1]; Table 12): 469 mm^3; TGI(%) Day 14 ([1]; Table 12): 76.39%; ΔT/ΔC(%) Day 14 ([1]; Table 12): 61.00%; Tumor volume (mm^3, Mean ± SD) Day 21 ([1]; Table 12): 585 mm^3 |
| C#Cc1c(F)ccc2cc(O)cc(-c3nc4c5c(nc(OCC6(CN7CCC(=CF)CC7)CC6)nc5c3F)N3C[C@H]5CC[C@H](N5)[C@H]3[C@H](C)O4)c12 [Example 129, 5-ethynyl-6-fluoro-4-((5S,5aS,6S,9R)-1-fluoro-12-((1-((4-(fluoromethylene)piperidin-1-yl)methyl)cyclopropyl)methoxy)-5-methyl-5a,6,7,8,9,10-hexahydro-5H-4-oxa-3,10a,11,13,14-pentaaza-6,9-methylnaphtho[1,8-ab]hept-2-yl)naphthalen-2-ol] | – | – | – | – | – | – | – | – | – | 100.00 | 100.48 | 100.22 | 97.42 | 110.22 | – | 0.17 | Tumor volume (mm^3, Mean ± SD) Day 0 ([1]; Table 11): 209 mm^3; TGI(%) Day 21 ([1]; Table 11): 97.63%; Tumor volume (mm^3, Mean ± SD) Day 21 ([1]; Table 11): 231 mm^3; ΔT/ΔC(%) Day 21 ([1]; Table 11): 20.27%; t1/2 [3]: ∞ |
| [2H]C([2H])([2H])[C@@H]1Oc2nc(-c3cc(O)cc4ccc(F)c(C#C)c34)c(F)c3nc(OCC4(CN5CCC(=CF)CC5)CC4)nc(c23)N2C[C@H]3CC[C@H](N3)[C@@H]12 [Example 164] | – | – | – | – | – | – | – | – | – | 100.00 | 92.40 | 94.94 | 96.81 | 91.42 | 51.9 | 0.32 | – |
| CON=C1CCN(CC2(COc3nc4c5c(nc(-c6cc(N)cc(Cl)c6C(F)(F)F)c(F)c5n3)O[C@@H](C)[C@@H]3[C@@H]5CC[C@H](CN43)N5)CC2)CC1 [Example 337, 1-((1-((((5S,5aS,6S,9R)-2-(5-amino-3-chloro-2-(trifluoromethyl)phenyl)-1-fluoro-5-methyl-5a,6,7,8,9,10-hexahydro-5H-4-oxa-3,10a,11,13,14-pentaaza-6,9-methylnaphtho[1,8-ab]heptene-12-yl)oxy)methyl)cyclopropyl)methyl)piperidin-4-one O-methyloxime] | – | – | – | – | – | 0.632 | 0.204 | 1.7 | 1 | – | – | – | – | – | – | 0.11 | – |
| [2H]C([2H])([2H])[C@@H]1Oc2nc(-c3cc(N)cc(Cl)c3C(F)(F)F)c(F)c3nc(OCC4(CN5CCC(=NOC)CC5)CC4)nc(c23)N2C[C@H]3CC[C@H](N3)[C@@H]12 [Example 339] | 13.8 | 0.133 | 0.188 | 7.5 | 4.8 | 0.476 | 0.143 | 1.8 | 1 | – | – | – | – | – | – | 0.1 | Tumor volume (mm^3, Mean ± SD) Day 0 ([1]; Table 12): 469 mm^3; TGI(%) Day 14 ([1]; Table 12): 160.47%; ΔT/ΔC(%) Day 14 ([1]; Table 12): 19.36%; Tumor volume (mm^3, Mean ± SD) Day 21 ([1]; Table 12): 185 mm^3 |
